Experimental data taken from publication PMC4457528, “Identification of Novel Small Molecule Inhibitors of Oncogenic RET Kinase” (PLoS ONE, 2015).
Where two headings read alike, the source gives them in different places.

Legend:
KinomeScan kinase panel [1] = target: T1, KinomeScan kinase panel (Homo sapiens, UniProt O43283); test: KinomeScan kinase panel, single concentration 10 µM; assay type: binding; conditions: LZK, 10 µM
T1 construct: purchased DiscoveRx (KinomeScan)

KinomeScan kinase panel [2] = target: T2, KinomeScan kinase panel (Homo sapiens, UniProt O76039); test: as above; assay type: binding; conditions: CDKL5, 10 µM; read-out: score (%)
T2 construct: purchased DiscoveRx (KinomeScan)

KinomeScan kinase panel [3] = target: T3, KinomeScan kinase panel (Homo sapiens, UniProt O95382); test: as above; assay type: binding; conditions: ASK2, 10 µM; read-out: score (%)
T3 construct: purchased DiscoveRx (KinomeScan)

KinomeScan kinase panel [4] = target: T4, KinomeScan kinase panel (Homo sapiens, UniProt P00533, L858R/T790M); test: as above; assay type: binding; conditions: EGFR(L858R.T790M), 10 µM
T4 construct: purchased DiscoveRx (KinomeScan)

KinomeScan kinase panel [5] = target: T5, KinomeScan kinase panel (Homo sapiens, UniProt P08581, M1250T); test: as above; assay type: binding; conditions: MET(M1250T), 10 µM
T5 construct: purchased DiscoveRx (KinomeScan)

KinomeScan kinase panel [6] = target: T6, KinomeScan kinase panel (Homo sapiens, UniProt P10721, L576P); test: as above; assay type: binding; conditions: KIT(L576P), 10 µM; read-out: score (%)
T6 construct: purchased DiscoveRx (KinomeScan)
T6 sequence (P10721 26-976 L576P): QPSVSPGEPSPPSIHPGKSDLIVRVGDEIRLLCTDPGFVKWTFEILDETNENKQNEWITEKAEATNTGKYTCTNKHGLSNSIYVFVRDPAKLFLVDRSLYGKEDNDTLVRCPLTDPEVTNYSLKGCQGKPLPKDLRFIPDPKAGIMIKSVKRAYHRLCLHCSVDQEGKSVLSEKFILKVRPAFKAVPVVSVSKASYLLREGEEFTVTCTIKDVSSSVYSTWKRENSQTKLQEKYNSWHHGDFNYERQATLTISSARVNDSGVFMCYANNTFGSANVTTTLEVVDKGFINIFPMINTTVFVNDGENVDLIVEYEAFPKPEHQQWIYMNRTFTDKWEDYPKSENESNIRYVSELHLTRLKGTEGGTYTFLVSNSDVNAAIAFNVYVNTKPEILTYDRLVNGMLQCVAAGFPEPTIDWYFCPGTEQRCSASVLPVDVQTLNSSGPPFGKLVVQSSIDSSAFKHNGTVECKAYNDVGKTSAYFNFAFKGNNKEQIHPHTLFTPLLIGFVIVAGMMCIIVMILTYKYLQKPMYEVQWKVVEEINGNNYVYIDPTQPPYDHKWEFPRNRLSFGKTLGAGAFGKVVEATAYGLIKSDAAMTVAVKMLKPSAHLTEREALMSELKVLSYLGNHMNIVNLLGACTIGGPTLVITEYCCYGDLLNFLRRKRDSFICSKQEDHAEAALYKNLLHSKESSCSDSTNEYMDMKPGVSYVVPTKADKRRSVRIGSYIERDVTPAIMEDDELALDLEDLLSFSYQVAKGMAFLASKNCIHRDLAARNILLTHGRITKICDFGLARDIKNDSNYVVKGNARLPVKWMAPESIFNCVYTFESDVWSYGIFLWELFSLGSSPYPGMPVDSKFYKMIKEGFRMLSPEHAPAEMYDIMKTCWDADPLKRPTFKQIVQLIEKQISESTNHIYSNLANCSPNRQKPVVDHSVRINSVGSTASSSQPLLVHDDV

KinomeScan kinase panel [7] = target: T7, KinomeScan kinase panel (Homo sapiens, UniProt P20794); test: as above; assay type: binding; conditions: MAK, 10 µM; read-out: score (%)
T7 construct: purchased DiscoveRx (KinomeScan)

KinomeScan kinase panel [8] = target: T8, KinomeScan kinase panel (Homo sapiens, UniProt P21860); test: as above; assay type: binding; conditions: ERBB3, 10 µM; read-out: score (%)
T8 construct: purchased DiscoveRx (KinomeScan)

KinomeScan kinase panel [9] = target: T9, KinomeScan kinase panel (Homo sapiens, UniProt P42336, E545A); test: as above; assay type: binding; conditions: PIK3CA(E545A), 10 µM; read-out: score (%)
T9 construct: purchased DiscoveRx (KinomeScan)

KinomeScan kinase panel [10] = target: T10, KinomeScan kinase panel (Homo sapiens, UniProt P42336, H1047L); test: as above; assay type: binding; conditions: PIK3CA(H1047L), 10 µM; read-out: score (%)
T10 construct: purchased DiscoveRx (KinomeScan)

KinomeScan kinase panel [11] = target: T11, KinomeScan kinase panel (Homo sapiens, UniProt P42336, M1043I); test: as above; assay type: binding; conditions: PIK3CA(M1043I), 10 µM; read-out: score (%)
T11 construct: purchased DiscoveRx (KinomeScan)

KinomeScan kinase panel [12] = target: T12, KinomeScan kinase panel (Homo sapiens, UniProt P42336, Q546K); test: as above; assay type: binding; conditions: PIK3CA(Q546K), 10 µM; read-out: score (%)
T12 construct: purchased DiscoveRx (KinomeScan)

KinomeScan kinase panel [13] = target: T13, KinomeScan kinase panel (Homo sapiens, UniProt P51617); test: as above; assay type: binding; conditions: IRAK1, 10 µM; read-out: score (%)
T13 construct: purchased DiscoveRx (KinomeScan)
T13 sequence (P51617 whole entry): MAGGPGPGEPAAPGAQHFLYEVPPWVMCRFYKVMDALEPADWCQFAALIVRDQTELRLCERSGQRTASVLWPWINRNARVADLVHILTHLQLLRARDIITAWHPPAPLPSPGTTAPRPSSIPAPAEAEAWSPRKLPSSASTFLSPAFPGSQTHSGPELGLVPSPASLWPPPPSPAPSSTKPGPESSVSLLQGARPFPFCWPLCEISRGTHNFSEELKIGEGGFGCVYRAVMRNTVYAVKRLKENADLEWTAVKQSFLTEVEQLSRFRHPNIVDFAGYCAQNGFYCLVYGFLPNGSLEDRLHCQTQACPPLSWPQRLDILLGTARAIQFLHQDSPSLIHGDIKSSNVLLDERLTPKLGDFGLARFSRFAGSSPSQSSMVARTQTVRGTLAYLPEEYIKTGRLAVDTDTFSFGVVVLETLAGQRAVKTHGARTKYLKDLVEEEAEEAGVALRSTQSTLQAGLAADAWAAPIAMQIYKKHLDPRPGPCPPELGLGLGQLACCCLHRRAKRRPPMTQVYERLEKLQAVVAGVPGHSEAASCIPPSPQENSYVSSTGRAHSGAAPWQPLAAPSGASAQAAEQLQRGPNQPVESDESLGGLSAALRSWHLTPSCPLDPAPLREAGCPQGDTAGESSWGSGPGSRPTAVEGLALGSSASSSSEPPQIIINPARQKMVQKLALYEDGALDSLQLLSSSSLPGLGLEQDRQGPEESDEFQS

KinomeScan kinase panel [14] = target: T14, KinomeScan kinase panel (Homo sapiens, UniProt P57058); test: as above; assay type: binding; conditions: HUNK, 10 µM; read-out: score (%)
T14 construct: purchased DiscoveRx (KinomeScan)
T14 sequence (P57058 whole entry): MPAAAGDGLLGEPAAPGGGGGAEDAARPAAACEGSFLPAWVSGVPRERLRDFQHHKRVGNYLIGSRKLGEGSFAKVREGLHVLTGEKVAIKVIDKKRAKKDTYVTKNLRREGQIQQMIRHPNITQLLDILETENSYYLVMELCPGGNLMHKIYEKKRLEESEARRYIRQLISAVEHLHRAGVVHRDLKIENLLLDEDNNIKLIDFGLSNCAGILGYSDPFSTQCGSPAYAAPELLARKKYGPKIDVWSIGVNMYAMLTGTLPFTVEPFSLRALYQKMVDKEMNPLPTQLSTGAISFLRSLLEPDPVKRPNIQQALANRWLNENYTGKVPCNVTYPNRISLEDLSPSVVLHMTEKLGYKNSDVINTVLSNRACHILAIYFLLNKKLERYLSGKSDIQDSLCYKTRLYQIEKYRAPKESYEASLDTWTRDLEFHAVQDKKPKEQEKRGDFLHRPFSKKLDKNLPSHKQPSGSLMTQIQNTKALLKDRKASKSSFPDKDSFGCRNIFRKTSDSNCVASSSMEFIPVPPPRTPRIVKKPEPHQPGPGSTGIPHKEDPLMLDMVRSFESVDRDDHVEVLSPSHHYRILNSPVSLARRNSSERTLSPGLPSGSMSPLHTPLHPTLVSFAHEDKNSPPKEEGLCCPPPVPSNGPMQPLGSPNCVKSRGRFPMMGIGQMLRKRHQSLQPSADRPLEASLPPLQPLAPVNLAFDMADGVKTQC

KinomeScan kinase panel [15] = target: T15, KinomeScan kinase panel (Homo sapiens, UniProt Q13233); test: as above; assay type: binding; conditions: MAP3K1, 10 µM; read-out: score (%)
T15 construct: purchased DiscoveRx (KinomeScan)

KinomeScan kinase panel [16] = target: T16, KinomeScan kinase panel (Homo sapiens, UniProt Q13464); test: as above; assay type: binding; conditions: read-out: score (%)
T16 construct: purchased DiscoveRx (KinomeScan)

KinomeScan kinase panel [17] = target: T17, KinomeScan kinase panel (Homo sapiens, UniProt Q15835); test: as above; assay type: binding; conditions: GRK1, 10 µM; read-out: score (%)
T17 construct: purchased DiscoveRx (KinomeScan)

KinomeScan kinase panel [18] = target: T18, KinomeScan kinase panel (Homo sapiens, UniProt Q52WX2); test: as above; assay type: binding; conditions: kinase SBK1; 10 µM; read-out: score (%)
T18 construct: purchased DiscoveRx (KinomeScan)

KinomeScan kinase panel [19] = target: T19, KinomeScan kinase panel (Homo sapiens, UniProt Q56UN5); test: as above; assay type: binding; conditions: kinase YSK4; 10 µM; read-out: score (%)
T19 construct: purchased DiscoveRx (KinomeScan)
T19 sequence (Q56UN5 whole entry): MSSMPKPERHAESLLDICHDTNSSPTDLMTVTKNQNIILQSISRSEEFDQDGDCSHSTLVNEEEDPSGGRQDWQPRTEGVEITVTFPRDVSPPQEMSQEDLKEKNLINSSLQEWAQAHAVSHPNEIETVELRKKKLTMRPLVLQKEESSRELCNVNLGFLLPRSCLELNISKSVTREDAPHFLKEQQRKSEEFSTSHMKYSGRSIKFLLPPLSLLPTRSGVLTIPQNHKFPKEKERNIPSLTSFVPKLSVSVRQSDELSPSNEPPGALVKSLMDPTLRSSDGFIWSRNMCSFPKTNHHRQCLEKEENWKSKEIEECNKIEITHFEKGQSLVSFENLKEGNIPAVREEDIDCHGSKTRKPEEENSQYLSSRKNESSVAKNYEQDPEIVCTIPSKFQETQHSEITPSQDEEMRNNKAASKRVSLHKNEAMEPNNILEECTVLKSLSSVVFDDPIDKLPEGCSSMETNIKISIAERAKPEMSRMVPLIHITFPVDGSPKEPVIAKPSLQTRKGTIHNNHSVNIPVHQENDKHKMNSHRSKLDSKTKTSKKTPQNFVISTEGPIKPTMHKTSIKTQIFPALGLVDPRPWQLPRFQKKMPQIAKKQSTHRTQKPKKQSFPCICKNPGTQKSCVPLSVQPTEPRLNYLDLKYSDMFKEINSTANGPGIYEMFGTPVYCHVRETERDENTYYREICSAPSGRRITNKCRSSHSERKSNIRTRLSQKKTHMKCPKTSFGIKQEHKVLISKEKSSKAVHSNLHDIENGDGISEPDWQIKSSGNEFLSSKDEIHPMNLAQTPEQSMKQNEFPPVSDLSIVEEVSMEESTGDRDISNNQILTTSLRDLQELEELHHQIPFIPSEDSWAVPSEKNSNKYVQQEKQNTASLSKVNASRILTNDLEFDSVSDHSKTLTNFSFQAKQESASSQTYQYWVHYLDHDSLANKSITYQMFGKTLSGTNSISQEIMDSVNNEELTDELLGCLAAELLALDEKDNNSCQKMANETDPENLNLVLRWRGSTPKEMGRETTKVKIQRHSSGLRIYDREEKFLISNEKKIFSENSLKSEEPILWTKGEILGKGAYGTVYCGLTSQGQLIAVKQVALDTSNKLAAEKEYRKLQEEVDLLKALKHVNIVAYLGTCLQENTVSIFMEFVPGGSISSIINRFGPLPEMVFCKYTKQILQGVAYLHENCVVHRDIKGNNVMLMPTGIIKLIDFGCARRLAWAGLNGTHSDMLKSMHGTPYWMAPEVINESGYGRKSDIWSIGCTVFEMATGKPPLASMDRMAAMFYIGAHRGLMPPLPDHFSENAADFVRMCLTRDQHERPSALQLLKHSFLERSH

KinomeScan kinase panel [20] = target: T20, KinomeScan kinase panel (Homo sapiens, UniProt Q6ZN16); test: as above; assay type: binding; conditions: MAP3K15, 10 µM; read-out: score (%)
T20 construct: purchased DiscoveRx (KinomeScan)

KinomeScan kinase panel [21] = target: T21, KinomeScan kinase panel (Homo sapiens, UniProt Q8IVW4); test: as above; assay type: binding; conditions: CDKL3, 10 µM; read-out: score (%)
T21 construct: purchased DiscoveRx (KinomeScan)

KinomeScan kinase panel [22] = target: T22, KinomeScan kinase panel (Homo sapiens, UniProt Q8IY84); test: as above; assay type: binding; conditions: NIM1, 10 µM; read-out: score (%)
T22 construct: purchased DiscoveRx (KinomeScan)

KinomeScan kinase panel [23] = target: T23, KinomeScan kinase panel (Homo sapiens, UniProt Q8NE63); test: as above; assay type: binding; conditions: HIPK4, 10 µM; read-out: score (%)
T23 construct: purchased DiscoveRx (KinomeScan)

KinomeScan kinase panel [24] = target: T24, KinomeScan kinase panel (Homo sapiens, UniProt Q92630); test: as above; assay type: binding; conditions: DYRK2, 10 µM; read-out: score (%)
T24 construct: purchased DiscoveRx (KinomeScan)

KinomeScan kinase panel [25] = target: T25, KinomeScan kinase panel (Homo sapiens, UniProt Q9H422); test: as above; assay type: binding; conditions: HIPK3, 10 µM; read-out: score (%)
T25 construct: purchased DiscoveRx (KinomeScan)
T25 sequence (Q9H422 whole entry): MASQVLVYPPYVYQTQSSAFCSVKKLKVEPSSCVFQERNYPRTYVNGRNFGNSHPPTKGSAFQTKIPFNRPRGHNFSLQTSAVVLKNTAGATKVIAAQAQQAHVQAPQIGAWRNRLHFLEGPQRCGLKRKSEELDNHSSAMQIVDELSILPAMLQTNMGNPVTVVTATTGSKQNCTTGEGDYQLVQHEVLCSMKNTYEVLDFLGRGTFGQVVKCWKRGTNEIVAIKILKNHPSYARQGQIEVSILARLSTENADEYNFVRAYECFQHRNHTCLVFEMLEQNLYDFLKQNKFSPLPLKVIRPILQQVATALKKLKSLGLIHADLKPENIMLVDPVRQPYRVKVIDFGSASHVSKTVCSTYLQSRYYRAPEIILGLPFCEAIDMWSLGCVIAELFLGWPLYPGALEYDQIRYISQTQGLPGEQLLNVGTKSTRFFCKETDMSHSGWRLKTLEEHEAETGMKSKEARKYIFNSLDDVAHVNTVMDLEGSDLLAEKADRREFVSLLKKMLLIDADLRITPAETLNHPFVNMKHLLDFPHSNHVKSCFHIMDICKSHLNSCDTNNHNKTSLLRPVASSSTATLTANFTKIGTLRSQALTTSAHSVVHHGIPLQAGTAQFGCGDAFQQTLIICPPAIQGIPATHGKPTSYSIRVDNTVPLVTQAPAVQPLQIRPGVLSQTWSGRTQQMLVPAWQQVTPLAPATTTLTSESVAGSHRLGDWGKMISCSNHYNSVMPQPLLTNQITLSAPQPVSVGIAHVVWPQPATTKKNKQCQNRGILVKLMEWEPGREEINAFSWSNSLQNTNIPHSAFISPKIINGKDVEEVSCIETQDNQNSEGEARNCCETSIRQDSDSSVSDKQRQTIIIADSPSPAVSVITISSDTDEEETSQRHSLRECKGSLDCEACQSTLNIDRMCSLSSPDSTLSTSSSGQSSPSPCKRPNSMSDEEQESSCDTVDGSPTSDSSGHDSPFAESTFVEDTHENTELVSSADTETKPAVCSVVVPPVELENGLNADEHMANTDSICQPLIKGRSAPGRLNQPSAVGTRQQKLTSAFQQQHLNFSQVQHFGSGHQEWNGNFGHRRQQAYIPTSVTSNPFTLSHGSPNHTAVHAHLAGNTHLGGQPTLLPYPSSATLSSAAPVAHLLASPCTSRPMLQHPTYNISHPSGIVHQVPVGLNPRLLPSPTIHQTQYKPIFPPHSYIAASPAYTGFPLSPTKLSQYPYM

KinomeScan kinase panel [26] = target: T26, KinomeScan kinase panel (Homo sapiens, UniProt Q9NYY3); test: as above; assay type: binding
T26 construct: purchased DiscoveRx (KinomeScan)

KinomeScan kinase panel [27] = target: T27, KinomeScan kinase panel (Homo sapiens, UniProt Q9UBF8); test: as above; assay type: binding; conditions: PIK4CB, 10 µM; read-out: score (%)
T27 construct: purchased DiscoveRx (KinomeScan)

KinomeScan kinase panel [28] = target: T28, KinomeScan kinase panel (Homo sapiens, UniProt Q9UEW8); test: as above; assay type: binding; conditions: kinase STK39; 10 µM; read-out: score (%)
T28 construct: purchased DiscoveRx (KinomeScan)

KinomeScan kinase panel [29] = target: T29, KinomeScan kinase panel (Homo sapiens, UniProt Q9UHD2); test: as above; assay type: binding; conditions: kinase TBK1; 10 µM; read-out: score (%)
T29 construct: purchased DiscoveRx (KinomeScan)

KinomeScan kinase panel [30] = target: T30, KinomeScan kinase panel (Homo sapiens, UniProt Q9Y2H9); test: as above; assay type: binding; conditions: MAST1, 10 µM; read-out: score (%)
T30 construct: purchased DiscoveRx (KinomeScan)

Ba/F3-RET/PTC3 cells = test: Growth curves, Ba/F3 cells expressing RET/PTC3; conditions: Ba/F3 RET/PTC3, without IL-3
Description: Fibroblasts were kept in medium supplemented with 5% fetal calf serum. Human cells were kept in 2% (TPC1), 5% (Nthy-ori-3-1), 20% (TT) or 10% (MZ-CRC-1) fetal calf serum. […] Cells were counted every 1–2 (fibroblasts) or 2–3 (human cell lines) days. Ba/F3 cells were kept in 10% fetal calf serum in 6-well dishes (200,000/well) and counted daily for 4 consecutive days, changing media every 2 days.
Differently from Ba/F3 NCOA4-RET, parental Ba/F3 were grown in the presence of IL3. Data are the mean ± SD of two experiments performed in triplicate.

KinomeScan kinase panel [31] = target: T31, KinomeScan kinase panel (Homo sapiens, UniProt P53779); test: KinomeScan kinase panel, single concentration 10 µM; assay type: binding; conditions: JNK3, 10 µM
T31 construct: purchased DiscoveRx (KinomeScan)

KinomeScan kinase panel [32] = target: T32, KinomeScan kinase panel (Homo sapiens, UniProt Q9Y6M4); test: as above; assay type: binding; conditions: CSNK1G3, 10 µM
T32 construct: purchased DiscoveRx (KinomeScan)

Row | SMILES | score (%) (KinomeScan kinase panel [1]) | remaining binding at 10 µM (KinomeScan kinase panel [2]) [%] | remaining binding at 10 µM (KinomeScan kinase panel [3]) [%] | score (%) (KinomeScan kinase panel [4]) | score (%) (KinomeScan kinase panel [5]) | remaining binding at 10 µM (KinomeScan kinase panel [6]) [%] | remaining binding at 10 µM (KinomeScan kinase panel [7]) [%] | remaining binding at 10 µM (KinomeScan kinase panel [8]) [%] | remaining binding at 10 µM (KinomeScan kinase panel [9]) [%] | remaining binding at 10 µM (KinomeScan kinase panel [10]) [%] | remaining binding at 10 µM (KinomeScan kinase panel [11]) [%] | remaining binding at 10 µM (KinomeScan kinase panel [12]) [%] | remaining binding at 10 µM (KinomeScan kinase panel [13]) [%] | remaining binding at 10 µM (KinomeScan kinase panel [14]) [%] | remaining binding at 10 µM (KinomeScan kinase panel [15]) [%] | remaining binding at 10 µM (KinomeScan kinase panel [17]) [%] | remaining binding at 10 µM (KinomeScan kinase panel [18]) [%] | remaining binding at 10 µM (KinomeScan kinase panel [19]) [%] | remaining binding at 10 µM (KinomeScan kinase panel [20]) [%] | remaining binding at 10 µM (KinomeScan kinase panel [21]) [%] | other results
1 | CCN1CCN(Cc2ccc(NC(=O)c3ccc(C)c(NC(=O)c4cncc(-c5cccs5)c4)c3)cc2C(F)(F)F)CC1 [ALW-II-41-27] | 15 | > 30 | > 30 | nb (Hits values higher than 30% were considered negative (no binding: nb)) | nb (Hits values higher than 30% were considered negative (no binding: nb)) | 0 | > 30 | > 30 | > 30 | > 30 | > 30 | > 30 | 17 | > 30 | > 30 | > 30 | > 30 | 21 | > 30 | 9.8 | remaining binding at 10 µM (KinomeScan kinase panel [16]; ROCK1, 10 µM): 0%; remaining binding at 10 µM (KinomeScan kinase panel [22]): > 30%; remaining binding at 10 µM (KinomeScan kinase panel [23]): 25%; remaining binding at 10 µM (KinomeScan kinase panel [24]): 18%; remaining binding at 10 µM (KinomeScan kinase panel [25]): > 30%; score (%) (KinomeScan kinase panel [26]; PLK2, 10 µM): nb (Hits values higher than 30% were considered negative (no binding: nb)); remaining binding at 10 µM (KinomeScan kinase panel [27]): > 30%; remaining binding at 10 µM (KinomeScan kinase panel [28]): > 30%; remaining binding at 10 µM (KinomeScan kinase panel [29]): > 30%; remaining binding at 10 µM (KinomeScan kinase panel [30]): > 30%; effect on RET/PTC3-driven proliferation (Ba/F3-RET/PTC3 cells): blunted
2 | CCN1CCN(Cc2ccc(NC(=O)c3ccc(C)c(/C=C/c4cnc5[nH]ccc5c4Cl)c3)cc2C(F)(F)F)CC1 [HG-6-63-01, (E)-3-(2-(4-chloro-1H-pyrrolo[2,3-b]pyridin-5-yl)vinyl)-N-(4-((4-ethylpiperazin-1-yl)methyl)-3-(trifluoromethyl)phenyl)-4-methylbenzamide] |  |  |  |  |  |  |  |  |  |  |  |  |  |  |  |  |  |  |  |  | score (%) (KinomeScan kinase panel [31]): nb (Hits values higher than 30% were considered negative (no binding: nb)); score (%) (KinomeScan kinase panel [32]): nb (Hits values higher than 30% were considered negative (no binding: nb))
3 | CCN1CCN(Cc2ccc(NC(=O)c3ccc(C)c(C#Cc4cccnc4)c3)cc2C(F)(F)F)CC1 [XMD15-44] | 7.4 | 12 | 12 | nb (Hits values higher than 30% were considered negative (no binding: nb)) | nb (Hits values higher than 30% were considered negative (no binding: nb)) | 0 | 9 | > 30 | 93 | 100 | 83 | 100 | 1.2 | > 30 | > 30 | > 30 | 88 | 0.1 | > 30 | 0.65 | score (%) (KinomeScan kinase panel [31]): 0.95%; remaining binding at 10 µM (KinomeScan kinase panel [16]; kinase ROCK1, 10 µM): 43%; remaining binding at 10 µM (KinomeScan kinase panel [22]): 97%; remaining binding at 10 µM (KinomeScan kinase panel [23]): 2.2%; remaining binding at 10 µM (KinomeScan kinase panel [24]): > 30%; remaining binding at 10 µM (KinomeScan kinase panel [25]): 18%; score (%) (KinomeScan kinase panel [26]; kinase PLK2, 10 µM): 100%; remaining binding at 10 µM (KinomeScan kinase panel [27]): 100%; remaining binding at 10 µM (KinomeScan kinase panel [28]): 89%; remaining binding at 10 µM (KinomeScan kinase panel [29]): 100%; remaining binding at 10 µM (KinomeScan kinase panel [30]): > 30%; score (%) (KinomeScan kinase panel [32]): nb (Hits values higher than 30% were considered negative (no binding: nb))
